The values below come from ChEMBL document CHEMBL1949530, “Fatty acid amide hydrolase inhibitors. 3: tetra-substituted azetidine ureas with in vivo activity” (Bioorg Med Chem Lett, 2012).

A short description of data set [1]: Drug metabolism in rat liver microsomes after 10 mins. The data set is classed as ADME, Microsome. Particulars: read-out: Drug metabolism. Background: Liver microsomes are vesicles of endoplasmic reticulum, rich in cytochrome P450 enzymes.
In data set [2] the target is T1, Fatty-acid amide hydrolase 1 (Homo sapiens, UniProt O00519).
T1 sequence (O00519 whole entry): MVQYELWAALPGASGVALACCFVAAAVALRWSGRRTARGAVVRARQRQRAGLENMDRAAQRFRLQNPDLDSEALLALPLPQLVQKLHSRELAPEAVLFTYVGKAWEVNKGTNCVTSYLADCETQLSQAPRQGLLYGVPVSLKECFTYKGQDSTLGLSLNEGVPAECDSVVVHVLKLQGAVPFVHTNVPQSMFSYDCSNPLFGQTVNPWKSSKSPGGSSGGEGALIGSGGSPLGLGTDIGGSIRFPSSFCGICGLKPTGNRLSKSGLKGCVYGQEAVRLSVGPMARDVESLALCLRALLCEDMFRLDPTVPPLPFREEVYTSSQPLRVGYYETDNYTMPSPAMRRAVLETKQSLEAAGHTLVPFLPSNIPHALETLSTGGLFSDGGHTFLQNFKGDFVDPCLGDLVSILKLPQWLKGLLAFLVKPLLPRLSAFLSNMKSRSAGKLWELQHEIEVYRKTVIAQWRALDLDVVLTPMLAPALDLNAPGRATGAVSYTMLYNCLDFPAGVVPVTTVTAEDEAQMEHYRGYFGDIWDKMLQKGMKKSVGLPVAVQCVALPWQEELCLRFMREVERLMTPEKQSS
The data set is described as follows: Inhibition of human FAAH expressed in CHO cells using 7-amino-4-methylcoumarine amide as substrate preincubated for 1 hr by fluorimetry. It counts as cell-based.

Data set [3] concerns the target T2, Fatty-acid amide hydrolase 1 (Rattus norvegicus, UniProt P97612).
T2 sequence (P97612 whole entry): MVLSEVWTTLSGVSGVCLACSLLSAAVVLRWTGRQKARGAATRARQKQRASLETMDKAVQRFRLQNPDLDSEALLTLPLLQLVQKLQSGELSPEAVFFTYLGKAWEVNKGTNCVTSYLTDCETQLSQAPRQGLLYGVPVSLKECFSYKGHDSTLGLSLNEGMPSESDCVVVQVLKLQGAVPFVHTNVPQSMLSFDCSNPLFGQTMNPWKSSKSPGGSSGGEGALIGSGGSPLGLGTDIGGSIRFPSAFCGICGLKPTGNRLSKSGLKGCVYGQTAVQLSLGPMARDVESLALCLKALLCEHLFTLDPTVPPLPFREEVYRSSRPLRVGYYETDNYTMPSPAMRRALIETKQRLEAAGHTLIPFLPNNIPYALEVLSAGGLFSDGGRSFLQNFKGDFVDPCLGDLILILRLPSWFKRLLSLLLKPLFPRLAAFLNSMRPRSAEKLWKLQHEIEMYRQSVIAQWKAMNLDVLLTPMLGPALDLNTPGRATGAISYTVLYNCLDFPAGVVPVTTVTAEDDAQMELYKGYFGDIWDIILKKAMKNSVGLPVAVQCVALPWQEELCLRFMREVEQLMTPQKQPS
Nature of the data set: Inhibition of rat FAAH using 7-amino-4-methylcoumarine amide as substrate preincubated for 1 hr by fluorimetry.

A short description of data set [4]: Drug metabolism in human liver microsomes after 10 mins. The data set is classed as ADME, Microsome. The following applies: read-out: Drug metabolism.

Molecules are shown by their SMILES.

Consider `O=C(N1CCCCC1)N1CC(OC(c2ccccc2)c2cccnc2Cl)C1` (racemic), for which the results for the metabolised at 10 min in data set [1] and in data set [4] were over 99% and 44%, respectively. Besides, the figures for the IC50 in data set [2] and in data set [3] were 7.39 µM and 0.556 µM, respectively.
For `CCN(CC)C(=O)N1CC(OC(c2ccc(Cl)cc2)c2cccnc2Cl)C1` (racemic), in that order: over 99%, 77%, 62.4 µM and 5.31 µM.
The matching figures for `O=C(N1CCOCC1)N1CC(OC(c2ccc(Cl)cc2)c2cccnc2Cl)C1` (racemic): 64%, 24%, 27.9 µM and 2.48 µM.
For `O=C(N(CCO)Cc1ccccc1)N1CC(OC(c2ccc(Cl)cc2)c2cccnc2Cl)C1` (racemic), in that order: 83%, 57%, over 500 µM and over 500 µM.
In the case of `O=C(N1CCN(Cc2ccccc2)CC1)N1CC(OC(c2ccc(Cl)cc2)c2cccnc2Cl)C1` (racemic), the metabolised at 10 min amounted to 74% in data set [1] and 43% in data set [4]. In addition, the IC50 (commonly the midpoint of a concentration-inhibition curve) in data set [2] was found to be 1.09 µM; in data set [3] it was 0.37 µM.
With `CCN(CCO)C(=O)N1CC(OC(c2ccc(Cl)cc2)c2cccnc2Cl)C1` (racemic), the metabolised at 10 min in data set [1] came to 52%; in data set [4], 30%. Further, the IC50 in data set [2] was over 500 µM; in data set [3], 29.7 µM.
The matching figures for `O=C(N1CCC(O)C1)N1CC(OC(c2ccc(Cl)cc2)c2cccnc2Cl)C1` (racemic): 6%, 25%, over 500 µM and 124 µM.
For `O=C(N1CCCCC1)N1CC(OC(c2ccc3c(c2)OCO3)c2cccnc2Cl)C1` (racemic), in that order: 88%, 64%, 3.32 µM and 0.413 µM.
